Patent publication US10689387B2, “Crystalline form of (1R,2R)-2-[4-(3-methyl-1H-pyrazol-5-yl)benzoyl]-N-(4-oxo-4,5,6,7-tetrahydropyrazolo[1,5-A]pyrazin-3-yl)cyclohexanecarboxamide” (AstraZeneca AB, priority 2016, dated 2020)

Test system: LTB4 production in fresh human whole blood
Test: FLAP Whole Blood Assay (Test B), inhibition of LTB4 production
Assay type: cell-based
Conditions: method B: 4 h incubation at 37° C., calcium ionophore A23187 stimulation
Experimental: FLAP Whole Blood Assay (Test B)
Compounds were tested for the inhibition of LTB4 production in fresh human whole blood obtained by venapuncture using heparin to prevent clotting. 1.5 μL compounds or DMSO carrier were dispensed into the wells of a 96-well deep-well plate in 3-fold dilution series. 500 μL heparnised whole blood was then added followed by incubation at 37° C. for 30 min (method A) or 4 h (method B). 100 μL blood was subsequently transferred in triplicate to pre-dispensed 0.5 μL 2 mM calcium ionophore (calcimycin; A23187) in a second 96-well plate. Following incubation at 37° C. for 20 min, the assays were stopped by adding 10 μL of stop solution (100 mM EGTA, pH 7.4) and the plate was transferred to ice. The plate was centrifuged at 3000 rpm at 4° C. for 10 min and 10 μL plasma was transferred to a fresh 96 well plate containing 90 μL pre-dispensed EIA assay buffer (0.1 M phosphate buffer+0.1% BSA). LTB4 was then measured using reagents from a commercial EIA (Cayman Chemicals). […] Inhibition of LTB4 production was defined as the LTB4 level in the presence of a given concentration of test compound expressed as a % of the LTB4 level in the presence of DMSO. IC50 values were determined by plotting % inhibition versus log compound concentration and using a one site dose response model. […]

Cc1cc(-c2ccc(C(=O)[C@@H]3CCCC[C@H]3C(=O)Nc3cnn4c3C(=O)NCC4)cc2)[nH]n1 [Compound (I), (1R,2R)-2-[4-(3-methyl-1H-pyrazol-5-yl)benzoyl]-N-(4-oxo-4,5,6,7-tetrahydropyrazolo[1,5-a]pyrazin-3-yl)cyclohexanecarboxamide]
IC50: 40 nM
